The results in this text go back to PubChem BioAssay AID1208 (EPA DSSTox, 2008).

Active and inactive are the calls of the source.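 Rule for the calls: active = at least one rat sex group has a carcinogenic potency value and tumor site recorded; inconclusive = only rat studies were judged inadequate by the national testing program; inactive = no potency or tumor site, with negative rat experiments.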

The first data set relates to rat chronic carcinogenicity bioassay, TD50. Put plainly: DSSTox (CPDBAS) Carcinogenic Potency Database Summary Rat Bioassay Results. The following applies: TD50_Rat_Note: TD50 is harmonic mean of more than one positive test; TargetSites_Rat_Female: adrenal gland; lung; stronger effect = lower value. The source says: The Carcinogenic Potency Database (CPDB) is a unique and widely used international resource of the results of over 6500 chronic, long-term animal cancer tests on over 1500 chemical substances. The CPDB provides easy access to the bioassay literature, with qualitative and quantitative analyses of both positive and negative experiments that have been published over the past 50 years in the general literature and by the National Cancer Institute/National Toxicology Program. The CPDB standardizes the diverse literature of cancer bioassays that vary widely in protocol, histopathological examination and nomenclature, and in the published author's choices of what information to provide in their papers. Results are reported in the CPDB for tests in rats, mice, hamsters, dogs, and nonhuman primates, and are based on the most positive result among all experiments for each sex-species. The DSSTox CPDBAS (all species) file incorporates data from the CPDB Summary Tables for the full list of over 1500 chemical substances tested in at least one species. Summary bioassay results for Rat (TD50, tumor sites, male, female, both sexes) are provided in the CPDB Summary Tables and the DSSTox CPDBAS file for over 1200 chemical substances.
TD50 is a standardized quantitative measure of carcinogenic potency (analogous to an LD50) and is reported in the CPDB Summary Table for each species. Activity Score for actives is computed by mapping of LOG10 (1/TD50_Rat_mmol) activity values spanning range [MIN, MAX] onto Integer 1-100 Activity Score range, where 100 is highest potency and 1 is lowest: Activity Score = 100 * INTEGER[(log10(1/Activity) - MIN)/(MAX - MIN)]. If activity is reported but no TD50_Rat_mmol value is computed, such as for a mixture, the Activity Score is assigned the activity value "50". […] Target sites are reported for each sex-species group with a positive result in the CPDB on the basis of a positive author's opinion for the particular site, using all results from both the general literature and NCI/NTP bioassays. If a chemical has two or more target sites listed, the results may be from different experiments, and a single site may be a target organ in more than one experiment, as well. Blank entry in TargetSites field indicates no results reported.
As for `O.O.O.O.O.O.O.O=S(=O)([O-])[O-].[Co+2]`, the Potency was 0.137 mg/kg/day.

Still in this data set, the particulars now being: TD50_Rat_Note: TD50 is harmonic mean of more than one positive test; TargetSites_Rat_Female: adrenal gland; pituitary gland; stronger effect = lower value.
Take `S=c1[nH]c2ccccc2s1`: the Potency was 344 mg/kg/day.

Still in this data set, the particulars now being: TD50_Rat_Note: TD50 is harmonic mean of more than one positive test; TargetSites_Rat_Female: clitoral gland; ear Zymbals gland; liver; stronger effect = lower value.
For the compound `Cc1cnc2ccc3c(nc(N)n3C)c2n1`, the Potency was 1.66 mg/kg/day.

Staying with this data set, now noted: TD50_Rat_Note: TD50 is harmonic mean of more than one positive test; TargetSites_Rat_Female: clitoral gland; ear Zymbals gland; mammary gland; oral cavity; stomach; stronger effect = lower value.
Consider `ClCC(Cl)CCl`, for which the Potency was 1.35 mg/kg/day.

The data set is the same for the next values; noted with them: TD50_Rat_Note: TD50 is harmonic mean of more than one positive test; TargetSites_Rat_Female: ear Zymbals gland; nasal cavity; oral cavity; stomach; vascular system; stronger effect = lower value.
On to `c1ccccc1`, for which the Potency is 169 mg/kg/day.

Still in this data set, the particulars now being: TD50_Rat_Note: TD50 is harmonic mean of more than one positive test; TargetSites_Rat_Female: hematopoietic system; liver; stronger effect = lower value.
`ClC1(Cl)C2(Cl)C3(Cl)C4(Cl)C(Cl)(Cl)C5(Cl)C3(Cl)C1(Cl)C5(Cl)C24Cl` (stereo not drawn): the Potency was 1.77 mg/kg/day.

The data set is the same for the next values; noted with them: TD50_Rat_Note: TD50 is harmonic mean of more than one positive test; TargetSites_Rat_Female: liver; stronger effect = lower value.
Take `Cc1c(N)nc(C)c2c1[nH]c1ccccc12`: the Potency is 0.575 mg/kg/day.
Same read-out and setting: with `CC(=O)N(O)c1ccc2c(c1)Cc1ccccc1-2` the figure was 0.988 mg/kg/day; with `CCCCOCCOCCOCc1cc2c(cc1CCC)OCO2`, 633 mg/kg/day.

The data set is the same for the next values; noted with them: TD50_Rat_Note: TD50 is harmonic mean of more than one positive test; TargetSites_Rat_Female: liver; lung; stronger effect = lower value.
Consider `O=NN(CCCC(F)(F)F)CCCC(F)(F)F`, for which the Potency was 0.748 mg/kg/day.

The data set is the same for the next values; noted with them: TD50_Rat_Note: TD50 is harmonic mean of more than one positive test; TargetSites_Rat_Female: liver; lung; vascular system; stronger effect = lower value.
As to `CC(=O)CN(CC(C)=O)N=O`, the Potency is 0.491 mg/kg/day.

Staying with this data set, now noted: TD50_Rat_Note: TD50 is harmonic mean of more than one positive test; TargetSites_Rat_Female: mammary gland; stronger effect = lower value.
Regarding `C=CC(=C)C`, the Potency was 313 mg/kg/day.

Staying with this data set, now noted: TD50_Rat_Note: TD50 is harmonic mean of more than one positive test; TargetSites_Rat_Female: mammary gland; stomach; uterus; stronger effect = lower value.
With `C=CCN(N=O)C(N)=O`, the Potency was 0.341 mg/kg/day.

Staying with this data set, now noted: TD50_Rat_Note: TD50 is harmonic mean of more than one positive test; TargetSites_Rat_Female: stomach; stronger effect = lower value.
`NC(=O)CCCCn1ccc(NC(N)=NCC(F)(F)F)n1`: the Potency was 1170 mg/kg/day.
For `ClCC1CO1` (stereo not drawn), the Potency is 2.96 mg/kg/day.

The same data set, now with this note: TD50_Rat_Note: TD50 is harmonic mean of more than one positive test; greater than ten-fold variation among TD50 values for positive res; TargetSites_Rat_Female: esophagus; liver; oral cavity; stomach; stronger effect = lower value.
`CCN(CC)N=O`: the Potency was 0.0265 mg/kg/day.

The same data set, now with this note: TD50_Rat_Note: TD50 is harmonic mean of more than one positive test; greater than ten-fold variation among TD50 values for positive res; TargetSites_Rat_Female: liver; mammary gland; subcutaneous tissue; stronger effect = lower value.
Take `Cc1ccccc1[N+](=O)[O-]`: the Potency is 4.66 mg/kg/day.

Still in this data set, the particulars now being: TD50_Rat_Note: TD50 is harmonic mean of more than one positive test; greater than ten-fold variation among TD50 values for positive res; TargetSites_Rat_Female: peritoneal cavity; stronger effect = lower value.
Consider `Nc1ccccc1`, for which the Potency is 269 mg/kg/day.

Staying with this data set, now noted: TD50_Rat_Note: TD50 is harmonic mean of more than one positive test; harmonic mean of TD50 includes a value for upper 99% confidence li; TargetSites_Rat_Female: liver; stronger effect = lower value.
For `COC(=O)C(C)(C)Oc1ccc(-c2ccc(Cl)cc2)cc1`, the Potency is 4.78 mg/kg/day.
For `CC/C(=C(\c1ccccc1)c1ccc(OCCN(C)C)cc1)c1ccccc1`, the Potency was 3.96 mg/kg/day.

Still in this data set, the particulars now being: TD50_Rat_Note: no positive results.
With `CCCCCN(N=O)C(=N)N[N+](=O)[O-]`, the outcome is “inactive; no positive results”.
The same measure, in the same setting: with `CCCCN(N=O)C(=N)N[N+](=O)[O-]` the entry was “inactive; no positive results”; with `Nc1ccccc1`, “inactive; no positive results”; with `CN1C(=O)OC(C)(C)C1=O`, “inactive; no positive results”.
On the same count and under the same terms, with `Nc1c(Cl)cc(Cl)cc1Cl` the entry was “inactive; no positive results”.
The same measure, in the same setting: with `O=S(=O)([O-])[O-].[O]=[V+2]` the entry was “inactive; no positive results”.
Turning to `c1ccc2c(c1)[nH]c1cnccc12`, the outcome was “inactive; no positive results”.
The same measure, in the same setting: with `O=C(O)c1cc(O)c(O)c(O)c1` the entry was “inactive; no positive results”; with `COc1cc(/C=C/C(=O)OCCc2ccccc2)ccc1O`, “inactive; no positive results”.
Turning to `CN=C(N)N`, the outcome was “inactive; no positive results”.

The data set is the same for the next values; noted with them: TD50_Rat_Note: no positive results are statistically significant; TargetSites_Rat_Female: kidney; lung; stronger effect = lower value.
For the compound `CC(=O)NCc1nc(-c2ccc([N+](=O)[O-])o2)no1`, the Potency is 59.6 mg/kg/day.

The same data set, now with this note: TD50_Rat_Note: no positive results; TargetSites_Rat_BothSexes: no positive results.
As for `O=[As](O)(O)O`, the result was inactive.
The same measure, in the same setting: with `[O]=[Bi]` the entry was “inactive”.

Staying with this data set, now noted: TD50_Rat_Note: no positive results; TargetSites_Rat_Female: no positive results.
As to `Cc1ccc(Cl)cc1N`, the outcome was “inactive; no positive results”.
On the same count and under the same terms, with `Nc1ccc([N+](=O)[O-])cc1N` the entry was “inactive; no positive results”; with `O=C(O)COc1cc(Cl)c(Cl)cc1Cl`, “inactive; no positive results”.
The same measure, in the same setting: with `Cc1cnc(NC(=O)C2=C(O)c3ccccc3S(=O)(=O)N2C)s1` the entry was “inactive; no positive results”.
The same measure, in the same setting: with `O=C1c2ccccc2-c2ccc3c4c(ccc1c24)-c1ccccc1C3=O` the entry was “inactive; no positive results”.
With `O=C1CCCCC1`, the outcome is “inactive; no positive results”.
The same measure, in the same setting: with `C[C@]12CC[C@H]3C(=CCc4cc(OS(=O)(=O)O)ccc43)[C@@H]1CCC2=O` the entry was “inactive; no positive results”; with `NC(=S)NNC=O`, “inactive”.
With `CC1=C(/C=C/C(C)=C/C=C/C(C)=C/C(=O)O)C(C)(C)CCC1`, the outcome is “inactive; no positive results”.
On to `C[C@@H]1O[C@@H](OC[C@H]2O[C@@H](Oc3c(-c4ccc(O)c(O)c4)oc4cc(O)cc(O)c4c3=O)[C@H](O)[C@@H](O)[C@@H]2O)[C@H](O)[C@H](O)[C@H]1O`, for which the outcome was “inactive; no positive results”.
On the same count and under the same terms, with `NC(=S)C(N)=S` the entry was “inactive”; with `O=C(Nc1cccc2c(=O)cc(-c3nn[nH]n3)oc12)c1ccc(OCCCCc2ccccc2)cc1`, “inactive; no positive results”.
The same measure, in the same setting: with `Cc1ccc(N)cc1Cl` the entry was “inactive; no positive results”.
Take `O=C(CCl)c1ccccc1`: the outcome was “inactive; no positive results”.
Turning to `O=[N+]([O-])c1ccc(NCCO)c(OCCO)c1`, the outcome is “inactive; no positive results”.
The same measure, in the same setting: with `CN(C)CCN(Cc1ccsc1)c1ccccn1` the entry was “inactive; no positive results”.
On to `O=[N+]([O-])c1c(Cl)c(Cl)c(Cl)c(Cl)c1Cl`, for which the outcome was “inactive; no positive results”.
On the same count and under the same terms, with `NC(N)=O` the entry was “inactive; no positive results”; with `OCc1ccccc1`, “inactive; no positive results”; with `COc1ccc(C(c2ccc(OC)cc2)C(Cl)(Cl)Cl)cc1`, “inactive; no positive results”.
Same read-out and setting: with `CNCCC(Oc1ccc(C(F)(F)F)cc1)c1ccccc1` (stereo not drawn) the entry was “inactive; no positive results”; with `CNC(=O)Oc1cc(C)c(N(C)C)c(C)c1`, “inactive; no positive results”.
On to `O=[N+]([O-])/C=C/c1ccccc1`, for which the outcome was “inactive; no positive results”.
With `O=c1oc2c(O)c(O)cc3c(=O)oc4c(O)c(O)cc1c4c23`, the outcome was inactive.
`OCC(O)CCl` (stereo not drawn): the outcome was “inactive; no positive results”.
Same read-out and setting: with `S=c1nc[nH]c2nc[nH]c12` the entry was “inactive; no positive results”; with `[N-]=[N+]=[N-]`, “inactive; no positive results”; with `Nc1ccc(/C=C/c2ccc(N)cc2S(=O)(=O)O)c(S(=O)(=O)O)c1`, “inactive; no positive results”.
Still for that read-out and setting: with `NS(=O)(=O)c1cc(C(=O)O)c(NCc2ccco2)cc1Cl` the entry was “inactive; no positive results”; with `C1OC1C1CO1` (stereo not drawn), “inactive”; with `c1ccc2[nH]c(-c3cscn3)nc2c1`, “inactive; no positive results”.

Still in this data set, the particulars now being: TD50_Rat_Note: only experiment is NCI/NTP bioassay inadequate; TargetSites_Rat_Female: NTP bioassay inadequate.
Regarding `C=CC1CC=CCC1` (stereo not drawn), the outcome is given as “ntp bioassay inadequate”.

The data set is the same for the next values; noted with them: TargetSites_Rat_Female: mammary gland; stronger effect = lower value.
As for `Cc1ncc([N+](=O)[O-])n1C`, the Potency was 17 mg/kg/day.

Still in this data set, the particulars now being: TargetSites_Rat_Female: no positive results; stronger effect = lower value.
On to `FCC(F)(F)F`, for which the Potency was 29900 mg/kg/day.
The same measure, in the same setting: with `NCC1(CC(=O)O)CCCCC1` the figure was 5850 mg/kg/day.

The same data set, now with this note: stronger effect = lower value.
As to `[O]=[Cr](=[O])([OH])[O][Cr](=[O])(=[O])[OH]`, the Potency is 4.64 mg/kg/day.
Same read-out and setting: with `Cc1cc2c(nc1N)[nH]c1ccccc12` the figure was 6.7 mg/kg/day; with `O=C1c2ccccc2C(=O)c2c(O)c(O)cc(O)c21`, 678 mg/kg/day.
In the case of `CCCCCCCC(=O)OCC(COC(=O)CCCCCCC)OC(=O)CCCCCCC`, the Potency was 5490 mg/kg/day.
For `C#CC(OC(N)=O)(c1ccccc1)c1ccc(Cl)cc1` (stereo not drawn), the Potency is 8.78 mg/kg/day.
